Experimental data from patent US12376594B2, “Pest control kit and method” (priority 2019, dated 2025).

Tests used:
[1] = tested on: Welsh chafer, Hoplia philanthus grubs; experiment: Field trial, control of chafer grubs in golf course; assay type: in vivo; conditions: The Grove Golf Club, nematodes 2.5 billion per hectare twice weekly, Chlorpyrifos 2 litres a.i. per hectare once
Protocol: Trial was conducted at The Grove Golf Club, Watford, London, UK between May 2017 and October 2018. Treatments consisted of: Heterorhabditis bacteriophora 2.5 billion/ha applied alone, Pest control kit-C 2.5 billion/ha applied with Wetting agent composition (10 L/ha) and Chlorpyrifos (Equity) 2 L a.i./ha. All treatments were applied using soil injector followed conventional boom sprayer. Soil samples were taken at 2, 4, 6, and 8 weeks post application to assess grub population.
Field trials were conducted on a naturally infested tees, green and fairways containing a mixture of Welsh chafer, Hoplia philanthus (90%), Garden chafer, Phyllopertha horticola (3%), Summer chafer, Amphimallon solstitialis (1%), May beetle, Melolontha (4%) and wireworms Agriotes species (3%) at The Grove Golf Club, Watford, and Ashridge Golf Club, Berkhamsted, UK. […] No natural nematodes were detected by baiting soil samples with Galleria mellonella larvae.
One week before treatment, the pre-treatment larval density was determined in tees, greens and fairways (see FIG. 4) by taking three 16×16×10 to 15 cm soil plugs with a shovel or golf Hole Cutter (10 cm diameter). The living larvae were counted and expressed as number of larvae per square meter. […]
The treatments included: • 1. […] The larval density after treatment was determined 2, 4, 6, or 8 weeks after nematode or chlorpyrifos application. […]

sciarid fly larvae = experiment: Field trial, control of sciarid fly larvae in mushroom production; assay type: in vivo, Lycoriella spp.; conditions: first week of application
Protocol: Treatments consisted of: Carbofuran, Teflubenzuron, Steinernema feltiae alone or with Wetting agent composition (as Pest control kit-S). Trial was conducted in mushroom production farm in UK in 2016-17. Mushrooms were naturally infected with sciarid larvae and numbers counted week 1 and 3 post treatments. Each treatment was replicated 4 times with 15 plants/treatment.
Fungus gnats, also known as sciarid flies, found on and around growing media, are a major pest for greenhouse and polytunnel ornamental crops. The sciarid fly larvae are responsible for causing damage to an extensive variety of economically important potted plants directly through feeding on roots and stalk tissue of seedlings, cuttings and younger plants. They also cause damage indirectly through the transmission of fungal disease through the wounds caused by sciarid larvae. Pot plants known to be susceptible to sciarid attack include Poinsettia, Azalea, Cyclamen, Kalanchoe, Exacum, Gerbera, Begonia and others. All kinds of young plants and young rooted cuttings (vegetables, ornamentals and young nursery plants) are highly susceptible to sciarid larvae. […] Mushrooms were harvested for up to 4 weeks and number of dead and live larvae were counted. […]
The number of surviving larvae was transformed into percentage efficacy using the equation below and analysed using analysis of variance (ANOVA). […]

| SMILES | Control of chafer grubs [1] [%] | Sciarid fly larvae control (sciarid fly larvae) [%] |
| --- | --- | --- |
| CCOP(=S)(OCC)Oc1nc(Cl)c(Cl)cc1Cl [Chlorpyrifos] | 62 |  |
| O=C(NC(=O)c1c(F)cccc1F)Nc1cc(Cl)c(F)c(Cl)c1F [Teflubenzuron] |  | 71 |
